Measurements: patent publication US10975068B2, “6-aminopyridin-3-yl thiazoles as modulators of RORγT” (Janssen Pharmaceutica NV, priority 2016, dated 2021)
Like-named read-outs stand apart in the source and are kept apart here.

Legend:
full-length human RORγt = full-length human RORγt (Homo sapiens (Human), UniProt P51449); assay: RORγt (full-length human) reporter assay, Conditions B or C; type: cell-based; conditions: for inhibition at 3 µM: at 3 μM compound concentration, read-out: RORγt (FL) Reporter Assay B or C, % inhibition; for IC50: read-out: RORγt (FL) Reporter Assay B or C, IC50; for RORγt (FL) Reporter Assay B or C, % inhibition (value marked *): marked *: footnote not given
Source text: RORγt (Full-Length Human) Reporter Assay:
Cells used in this assay were transiently co-transfected with three different plasmids, one expressing the GAL4-DNA binding domain (DBD)-RORγt fusion protein under control of a CMV promoter (NH2-Gal4-DBD:RORC-COOH in pCMV-BD, Stratagene #211342), and two reporter plasmids—the firefly luciferase reporter under control of a GAL4 promoter (pFR-Luc 2×GAL4) and Renilla luciferase reporter under control of CMV promoter (pRL-CMV, Promega # E2261). The full-length coding sequence was used for human RORγt, i.e., nucleotides 142-1635 of human RORγt, transcript variant 2, NCBI Accession: NM_001001523.1 (SEQ ID NO:1). HEK293T cells were plated at 35,000 per well in 96-well plate in medium of DMEM with 10% FBS. After 18-22 hours incubation, the transfection was carried out by using a PEI solution with 170.5 ng total DNA/well (50 ng pCMV-BD-ROR plus 20 ng of pFR-Luc reporter and 0.5 ng of pRL-CMV reporter plus 100 ng Carrier DNA (Clontech #630440) for each well). 4-6 hours after transfection, cells were treated with compounds for overnight in the medium with final concentration of FBS 1.3% and DMSO 0.1%. After overnight (16 to 20 hours) incubation, media were removed and cells were lysed with 50 μL Glo Lysis Buffer (Promega) for 10-15 minutes followed by 10 minute incubation with 50 μL Dual Glo reagent (Promega) at room temperature. Firefly luciferase luminescence was measured using a BMG Pherastar plate reader. To each well, 50 μL Stop and Glo reagent was added and incubated for 10 minutes at room temperature. Renilla luminescence was measured using a BMG Pherastar plate reader. To calculate the effect of compounds on RORγt activity, firefly values were normalized against values of DMSO only and values of reference compound at saturating concentration, then further normalized against Renilla signals. IC50s were generated by plotting final Renilla normalized data against compound concentration and percent inhibition was calculated against DMSO control.
Cells used in this assay were transiently co-transfected with three different plasmids, one expressing the GAL4-DNA binding domain (DBD)-RORγt fusion protein under control of a CMV promoter (NH2-Gal4-DBD:RORC-COOH in pCMV-BD, Stratagene #211342), and two reporter plasmids—the firefly luciferase reporter under control of a GAL4 promoter (pFR-Luc 2×GAL4) and Renilla luciferase reporter under control of CMV promoter (pRL-CMV, Promega # E2261). The full-length coding sequence was used for human RORγt, i.e., nucleotides 142-1635 of human RORγt, transcript variant 2, NCBI Accession: NM_001001523.1 (SEQ ID NO:1). HEK293T cells were plated at 8750 cells per well in 384-well plate in medium of DMEM with 10% FBS. After 18-22 hours incubation, the transfection was carried out by using a PEI solution with 42.6 ng total DNA/well (12.5 ng pCMV-BD-ROR plus 5 ng of pFR-Luc reporter and 0.125 ng of pRL-CMV reporter plus 25 ng Carrier DNA (Clontech #630440) for each well). 4-6 hours after transfection, cells were treated with compounds for overnight in the medium with final concentration of FBS 1.3% and DMSO 0.1%. After overnight (16 to 20 hours) incubation, media were removed and cells were lysed with 20 μL Glo Lysis Buffer (Promega) for 10-15 minutes followed by 10 minute incubation with 20 μL Dual Glo reagent (Promega) at room temperature. Firefly luciferase luminescence was measured using a BMG Pherastar plate reader. To each well, 20 μL Stop and Glo reagent was added and incubated for 10 minutes at room temperature. Renilla luminescence was measured using a BMG Pherastar plate reader. To calculate the effect of compounds on RORγt activity, firefly values were normalized against values of DMSO only and values of reference compound at saturating concentration, then further normalized against Renilla signals.

[1] = target: human RORγt ligand binding domain (RORγt LBD) (Homo sapiens (Human), UniProt P51449); assay: RORγt ThermoFluor® assay (thermal shift binding); conditions: read-out: ThermoFluor® Assay, Kd
Source text: ThermoFluor® is a fluorescence based assay that estimates ligand binding affinities by measuring the effect of a ligand on protein thermal stability (Pantoliano, M. W., Petrella, E. C., Kwasnoski, J. D., Lobanov, V. S., Myslik, J., Graf, E., Carver, T., Asel, E., Springer, B. A., Lane, P., and Salemme, F. R. (2001) High-density miniaturized thermal shift assays as a general strategy for drug discovery. J Biomol Screen 6, 429-40, and Matulis, D., Kranz, J. K., Salemme, F. R., and Todd, M. J. (2005) Thermodynamic stability of carbonic anhydrase: measurements of binding affinity and stoichiometry using ThermoFluor. Biochemistry 44, 5258-66). This approach is applicable to a wide variety of systems, and rigorous in theoretical interpretation through quantitation of equilibrium binding constants (KD).
The shift in the melting point described as a ΔTm is proportional to the concentration and affinity of the ligand. The compound potency may be compared as a rank order of either ΔTm values at a single compound concentration or in terms of KD values, estimated from concentration response curves.
RORγt ThermoFluor® Assay Construct
For the RORγt construct used in the ThermoFluor® assay, numbering for the nucleotide sequences was based on the reference sequence for human RORγt, transcript variant 2, NCBI Accession: NM_001001523.1 (SEQ ID NO:1). Nucleotides 850-1635 (SEQ ID NO:2) coding for the wild type human RORγt ligand binding domain (RORγt LBD) were cloned into the pHIS1 vector, a modified pET E. coli expression vector (Accelagen, San Diego), containing an in-frame N-terminal His-tag and a TurboTEV protease cleavage site (ENLYFQG, SEQ ID NO:3) upstream of the cloned insert sequence. The amino acid sequence for the RORγt construct used in the Thermofluor® assay is shown as SEQ ID NO:4.
ThermoFluor® experiments were carried out using instruments owned by Janssen Research and Discovery, L.L.C. through its acquisition of 3-Dimensional Pharmaceuticals, Inc. 1,8-ANS (Invitrogen) was used as a fluorescent dye. Protein and compound solutions are dispensed into black 384-well polypropylene PCR microplates (Abgene) and overlayed with silicone oil (1 μL, Fluka, type DC 200) to prevent evaporation.
Bar-coded assay plates are robotically loaded onto a thermostatically controlled PCR-type thermal block and then heated at a typical ramp-rate of 1° C./min for all experiments. Fluorescence was measured by continuous illumination with UV light (Hamamatsu LC6) supplied via fiber optic and filtered through a band-pass filter (380-400 nm; >6 OD cutoff). Fluorescence emission of the entire 384-well plate was detected by measuring light intensity using a CCD camera (Sensys, Roper Scientific) filtered to detect 500±25 nm, resulting in simultaneous and independent readings of all 384 wells. Images were collected at each temperature, and the sum of the pixel intensity in a given area of the assay plate was recorded versus temperature. Reference wells contained RORγt without compounds, and the assay conditions were as follows: • 0.065 mg/mL RORγt • 60 μM 1,8-ANS • 100 mM Hepes, pH 7.0 • 10 mM NaCl • 2.5 mM GSH • 0.002% Tween-20
Project compounds were arranged in a pre-dosed mother plate (Greiner Bio-one) wherein compounds are serially diluted in 100% DMSO by 1:2 from a high concentration of 10 mM over 12 columns within a series (column 12 is a reference well containing DMSO, no compound). The compounds were robotically dispensed directly into assay plates (×=46 nL) using a Hummingbird capillary liquid handling instrument (Digilab). Following compound dispense, protein and dye in buffer was added to achieve the final assay volume of 3 μL, followed by 1 μL of silicone oil.

human RORγt ligand binding domain (RORγt LBD), sequence (P51449 other isoform, or with tags, fused parts or gaps): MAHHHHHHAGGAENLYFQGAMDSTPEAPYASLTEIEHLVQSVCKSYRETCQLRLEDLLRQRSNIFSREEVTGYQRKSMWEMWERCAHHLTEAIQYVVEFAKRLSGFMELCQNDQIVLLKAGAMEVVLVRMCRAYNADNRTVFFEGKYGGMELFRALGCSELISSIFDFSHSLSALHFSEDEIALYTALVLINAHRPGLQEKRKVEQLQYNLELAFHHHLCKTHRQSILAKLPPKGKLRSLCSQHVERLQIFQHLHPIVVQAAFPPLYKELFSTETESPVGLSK
full-length human RORγt, sequence (P51449 other isoform, or with tags, fused parts or gaps): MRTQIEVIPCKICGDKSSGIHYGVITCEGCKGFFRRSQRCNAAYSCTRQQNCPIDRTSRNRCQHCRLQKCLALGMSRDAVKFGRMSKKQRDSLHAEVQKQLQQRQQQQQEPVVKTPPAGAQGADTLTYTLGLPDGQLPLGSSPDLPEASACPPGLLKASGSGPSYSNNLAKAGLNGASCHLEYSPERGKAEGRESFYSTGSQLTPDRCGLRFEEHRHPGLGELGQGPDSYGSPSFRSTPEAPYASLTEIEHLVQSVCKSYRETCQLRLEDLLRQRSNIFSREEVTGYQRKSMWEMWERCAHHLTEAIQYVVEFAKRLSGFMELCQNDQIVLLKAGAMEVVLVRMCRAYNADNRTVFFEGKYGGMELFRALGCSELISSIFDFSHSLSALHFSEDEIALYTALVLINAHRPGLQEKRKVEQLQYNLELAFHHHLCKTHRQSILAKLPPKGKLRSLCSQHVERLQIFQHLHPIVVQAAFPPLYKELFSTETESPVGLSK

C[C@H]1CCCN1C(=O)c1nc(C(=O)N[C@H]2C[C@H](O)C2)sc1-c1cnc(N[C@H](C)C(F)(F)F)cc1C(F)F [Example 319, 5-(4-(Difluoromethyl)-6-(((R)-1,1,1-trifluoropropan-2-yl)amino)pyridin-3-yl)-N-((1r,3S)-3-hydroxycyclobutyl)-4-((S)-2-methylpyrrolidine-1-carbonyl)thiazole-2-carboxamide]
inhibition at 3 µM (full-length human RORγt): 91%
IC50 (full-length human RORγt): 79 nM
Kd [1]: 29 nM

CC[C@H](Nc1cc(C(F)F)c(-c2sc(C(=O)NC3CCCC3O)nc2C(=O)N2CCC[C@@H]2C)cn1)C(F)(F)F (stereo partly drawn) [Example 252, 5-(4-(Difluoromethyl)-6-(((S)-1,1,1-trifluorobutan-2-yl)amino)pyridin-3-yl)-N-(cis-2-hydroxycyclopentyl)-4-((S)-2-methylpyrrolidine-1-carbonyl)thiazole-2-carboxamide]
inhibition at 3 µM (full-length human RORγt): 106%
IC50 (full-length human RORγt): 35 nM
Kd [1]: 1.2 nM

C[C@H]1CCCN1C(=O)c1nc(C(=O)NCC2(O)CCC2)sc1-c1cnc(NC(C)(C)C)cc1C(F)(F)F [Example 134, (S)-5-(6-(tert-Butylamino)-4-(trifluoromethyl)pyridin-3-yl)-N-((1-hydroxycyclobutyl)methyl)-4-(2-methylpyrrolidine-1-carbonyl)thiazole-2-carboxamide]
RORγt (FL) Reporter Assay B or C, % inhibition (value marked *) (full-length human RORγt; Conditions B or C): 108* %
IC50 (full-length human RORγt; Conditions B or C): 14 nM
Kd [1]: 1.2 nM

C[C@H]1CCCN1C(=O)c1nc(C(=O)NCC(C)(C)O)sc1-c1ccnc(NC2CCCCC2)c1C#N [Comparator Example 1, (S)-5-(3-Cyano-2-(cyclohexylamino)pyridin-4-yl)-N-(2-hydroxy-2-methylpropyl)-4-(2-methylpyrrolidine-1-carbonyl)thiazole-2-carboxamide, reference compound]
IC50 (full-length human RORγt; HEK293T cells): > 6000 nM
Kd [1]: 3000 nM

C[C@H]1CCCN1C(=O)c1nc(C(=O)N[C@H]2CC[C@@H](O)C2)sc1-c1cnc(NC(C)(C)C)cc1C(F)(F)F [Example 367, 5-[6-(tert-Buylamino)-4-(trifluoromethyl)-3-pyridyl]-N-[(1S,3R)-3-hydroxycyclopentyl]-4-[(2S)-2-methylpyrrolidine-1-carbonyl]thiazole-2-carboxamide]
inhibition at 3 µM (full-length human RORγt): 99%
IC50 (full-length human RORγt): 21 nM
Kd [1]: 2.1 nM

C[C@H](Nc1cc(C(F)F)c(-c2sc(C(=O)NC3CN(S(C)(=O)=O)C3)nc2C(=O)N2CCC[C@@H]2C)cn1)C(F)(F)F [Example 409, 5-[4-(Difluoromethyl)-6-[[(1S)-2,2,2-trifluoro-1-methyl-ethyl]amino]-3-pyridyl]-4-[(2S)-2-methylpyrrolidine-1-carbonyl]-N-(1-methylsulfonylazetidin-3-yl)thiazole-2-carboxamide]
inhibition at 3 µM (full-length human RORγt): 103%
IC50 (full-length human RORγt): 36 nM
Kd [1]: 6.3 nM

CC[C@H](Nc1cc(C(F)(F)F)c(-c2sc(C(=O)NCC(C)(C)O)nc2C(=O)N2CC(F)(F)C[C@@H]2C)cn1)C(F)(F)F [Example 102, 4-((S)-4,4-Difluoro-2-methylpyrrolidine-1-carbonyl)-N-(2-hydroxy-2-methylpropyl)-5-(6-(((S)-1,1,1-trifluorobutan-2-yl)amino)-4-(trifluoromethyl)pyridin-3-yl)thiazole-2-carboxamide]
RORγt (FL) Reporter Assay B or C, % inhibition (value marked *) (full-length human RORγt; Conditions B or C): 116* %
IC50 (full-length human RORγt; Conditions B or C): 17 nM
Kd [1]: 0.99 nM

C[C@H]1CCCN1C(=O)c1nc(C(=O)N(C)CC(C)(C)O)sc1-c1cnc(NC(C)(C)C)cc1C(F)(F)F [Example 340, 5-[6-(tert-Butylamino)-4-(trifluoromethyl)-3-pyridyl]-N-(2-hydroxy-2-methyl-propyl)-N-methyl-4-[(2S)-2-methylpyrrolidine-1-carbonyl]thiazole-2-carboxamide]
inhibition at 3 µM (full-length human RORγt): 111%
IC50 (full-length human RORγt): 11 nM
Kd [1]: 5.3 nM
